# Laboratory results from patent US12667586B2, “Treatments for ocular surface disorders” (Glaukos Corporation, priority 2023, dated 2026).
# Legend:
# [1] = target: gap junctions (Homo sapiens); conditions: at 17 μM; cited from earlier work
# [2] = test system: ATP release in glioma cells; conditions: read-out: IC50 (half maximal inhibitory concentration) for the inhibition of ATP release; cited from earlier work
# [3] = test system: persistent epithelial defect (PED) of the cornea; assay: Phase 2 randomized, double-masked, vehicle-controlled study in subjects with persistent epithelial defects (PED) from ocular chemical and/or thermal injuries; format: in vivo, human; conditions: for subjects who achieved corneal epithelial recovery (re-epithelialized by Day 28 and remained so for at least 28 days): topical under bandage contact lens and to fornices, Day 1, Day 2, Day 14 if not re-epithelialized, n=12, full data set
# Source text: A Phase 2, Randomized, Prospective, Double-Masked, Vehicle-Controlled Study to Assess the Efficacy and Safety of Lufepirsen® (Lufepirsen) Applied Topically in Subjects with Persistent Epithelial Defects (PED) Resulting from Ocular Chemical and/or Thermal Injuries.
# This Example describes the use of an exemplary connexin modulator (lufepirsen) in a randomized, prospective, vehicle-controlled, double-masked, human clinical trial to treat non-healing ocular surface defects. Lufepirsen is a connexin 43 antisense oligonucleotide according to SEQ ID NO:1. The vehicle comparator in the trial was Pluronic F-127.
# Study Subjects: A total of 35 subjects were enrolled in this clinical trial. All eligible subjects presented with a non-infected, persistent epithelial defect (PED) of the cornea as a result of a chemical and/or thermal ocular injury, that was refractory to current standard of care for at least 14 days. Of the 35 subjects, 24 subjects received topical ocular dose administrations of […] and 11 subjects received Vehicle. […]
# • Corneal epithelial recovery, defined as a cornea that re-epithelializes by Day 28 of treatment and remains re-epithelialized for at least 28 days after initial re-epithelialization was first recorded, as assessed by the Investigator. Secondary Endpoints: • The time to epithelialization defined as the time from randomization to the time of initial re-epithelialization. • Improvement of visual acuity from baseline over the course of the study period. • Number of […] treatment doses required for recovery of the corneal epithelium. Exploratory Endpoints: • Change from baseline in PED area defined as the largest diameter times the largest one perpendicular to it, within the confines of the epithelial defect. • Corneal re-epithelialization, defined as a cornea that has re-epithelialized by Day 28 of treatment. • Change from baseline in ocular symptoms. • Primary, secondary, and exploratory endpoints were also assessed (as applicable) for the open-label section of the study. • Descriptive comparison of intrasubject corneal re-epithelization to fellow eye in subjects with bilateral injuries Safety: • Incidence of Treatment Emergent Adverse Events.
# Treatment Dosing: The study comprised of a 28-day Treatment Period, followed by a Post-treatment Follow-up Period of at least 28 days to evaluate both safety and re-epithelization status (durability), both of which were double-masked (i.e., double-blinded). Once determined to be eligible, subjects were randomized to receive either […] 0.06% or […] 0.006% or Vehicle in a 1:1:1 ratio respectively. Investigational product was applied under a bandage contact lens (BCL) and to the fornices of the study eye at the following time points during the Treatment Period: • Day 1 • Day 2 • Day 14 (if the cornea has not re-epithelialized)
# The eye was then covered with a double eye pad and taped shut for approximately 8 hours.
# Three treatment arms were evaluated in the study. Randomization was in a 1:1:1 ratio: • GROUP A—[…] 0.06% • GROUP B—[…] 0.006% • GROUP C—Vehicle
# There was a single application of investigational product on Day 1 and Day 2. A potential additional application of investigational product was scheduled at Day 14 if re-epithelialization has not occurred.
# The first investigational product application occurred following randomization on Day 1 of the Treatment Period, with the second application administered on Day 2. […]
# Cx43 hemichannels = Cx43 hemichannels (Homo sapiens, UniProt P17302); conditions: cited from earlier work
# Cx43 hemichannels, sequence (P17302 2-382 limits assumed): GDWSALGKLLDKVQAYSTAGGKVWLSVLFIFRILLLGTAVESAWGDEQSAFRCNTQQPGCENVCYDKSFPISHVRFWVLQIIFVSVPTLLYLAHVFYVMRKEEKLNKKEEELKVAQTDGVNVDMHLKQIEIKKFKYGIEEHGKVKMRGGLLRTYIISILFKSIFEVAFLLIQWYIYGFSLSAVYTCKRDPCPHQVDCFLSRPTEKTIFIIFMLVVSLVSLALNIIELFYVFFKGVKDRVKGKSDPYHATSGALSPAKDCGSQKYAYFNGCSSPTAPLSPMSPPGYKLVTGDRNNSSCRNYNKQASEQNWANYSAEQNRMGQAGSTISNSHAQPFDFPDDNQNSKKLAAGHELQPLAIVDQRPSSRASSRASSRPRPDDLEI
# gap junctions = conditions: in some circumstances; cited from earlier work
# gap junctions (Homo sapiens), sequence (P08034 whole entry): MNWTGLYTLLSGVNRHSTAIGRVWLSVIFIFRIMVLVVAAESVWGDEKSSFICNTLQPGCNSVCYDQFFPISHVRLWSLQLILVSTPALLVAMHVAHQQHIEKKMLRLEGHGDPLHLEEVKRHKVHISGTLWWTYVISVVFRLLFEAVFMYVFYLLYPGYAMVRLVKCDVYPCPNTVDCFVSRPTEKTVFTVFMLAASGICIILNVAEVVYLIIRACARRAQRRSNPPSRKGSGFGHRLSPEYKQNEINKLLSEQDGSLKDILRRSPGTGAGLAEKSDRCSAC
substance,measurement,setting,value
"GHGDPLHLEEVKC [^32Gap24, peptide that mimics a 13 amino acid long stretch of the L2 region of Cx32]",effect on gap junctions,[1],without affecting gap junctions
YGRKKRRQRRRKQIEIKKFK [TAT-^43Gap19],IC50,[2],7 µM
"5′-GTAATTGCGGCAAGAAGAATTGTTTCTGTC-3′ (antisense GTAATTGCGGCAAGAAGAATTGTTTCTGTC; listed as DNA, chemistry not given here)",subjects who achieved corneal epithelial recovery (re-epithelialized by Day 28 and remained so for at least 28 days),[3]; LUFEPIRSEN 0.006%,66.7%
same,subjects who achieved corneal epithelial recovery (re-epithelialized by Day 28 and remained so for at least 28 days),[3]; LUFEPIRSEN 0.06%,66.7%
same,tolerability of treatment (TEAEs),"[3]; TEAEs across all 3 treatment groups mild to moderate, unlikely/unrelated to study drug, a SAE not related to study drug",well tolerated
same,times more likely to heal than the vehicle group,[3]; both LUFEPIRSEN doses pooled (n=24) vs VEH (n=11),2.44 times
same,comparative improvement in corneal epithelial recovery over the VEH group,"[3]; both LUFEPIRSEN doses pooled (n=24) vs VEH (n=11), Fisher's exact test p=0.065",39.4%
VDCFLSRPTEKT [Peptide5],concentration at which Cx43 hemichannels are inhibited,Cx43 hemichannels,5 to 10 µM
same,concentration at which incubation also leads to inhibition of gap junctions,gap junctions,≥ 100 µM
